# Measured values as given in PubChem BioAssay (NCI).
#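 In this assay, cells in 96-well plates receive the compound at five concentrations for 48 hours. Endpoints are linearly interpolated between the surrounding concentrations. Definition used: TGI = concentration required for complete inhibition of growth.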
# Key:
# Test in all cases: NCI-60 cell line screen, 48 h
# [1] = tested on: 786-0 renal
# [2] = tested on: A549 NSCLC
# [3] = tested on: BT-549 breast
# [4] = tested on: CCRF-CEM leukemia
# [5] = tested on: COLO 205 colon
# [6] = tested on: DU-145 prostate
# [7] = tested on: HCT-116 colon
# [8] = tested on: HCT-15 colon
# [9] = tested on: HL-60(TB) leukemia
# [10] = tested on: HOP-62 NSCLC
# [11] = tested on: HOP-92 NSCLC
# [12] = tested on: HS 578T breast
# [13] = tested on: HT29 colon
# [14] = tested on: IGROV1 ovarian
# [15] = tested on: K-562 leukemia
# [16] = tested on: KM12 colon
# [17] = tested on: LOX IMVI melanoma
# [18] = tested on: M14 melanoma
# [19] = tested on: MALME-3M melanoma
# [20] = tested on: MDA-MB-231 breast
# [21] = tested on: MDA-N
# [22] = tested on: MOLT-4 leukemia
# [23] = tested on: NCI-H23 lung
# [24] = tested on: NCI-H460 lung
# [25] = tested on: NCI-H522 lung
# [26] = tested on: NCI/ADR-RES ovarian
# [27] = tested on: OVCAR-4 ovarian
# [28] = tested on: OVCAR-5 ovarian
# [29] = tested on: OVCAR-8 ovarian
# [30] = tested on: PC-3 prostate
# [31] = tested on: RPMI-8226 leukemia
# [32] = tested on: RXF 393 renal
# [33] = tested on: SF-268 CNS
# [34] = tested on: SF-295 CNS
# [35] = tested on: SF-539 CNS
# [36] = tested on: SK-MEL-2 melanoma
# [37] = tested on: SK-MEL-28 melanoma
# [38] = tested on: SK-MEL-5 melanoma
# [39] = tested on: SK-OV-3 ovarian
# [40] = tested on: SN12C renal
# [41] = tested on: SNB-19 CNS
# [42] = tested on: SNB-75 CNS
# [43] = tested on: SR leukemia
# [44] = tested on: SW-620 colon
# [45] = tested on: T-47D breast
# [46] = tested on: TK-10 renal
# [47] = tested on: U251 CNS
# [48] = tested on: UACC-257 melanoma
# [49] = tested on: UO-31 renal
# [50] = tested on: A498 renal
# [51] = tested on: ACHN renal
# [52] = tested on: CAKI-1 renal
# [53] = tested on: HCC-2998 colon
# [54] = tested on: MCF7 breast
# [55] = tested on: MDA-MB-435
# [56] = tested on: NCI-H226 lung
# [57] = tested on: OVCAR-3 ovarian
# [58] = tested on: UACC-62 melanoma
# [59] = tested on: EKVX NSCLC
structure (smiles),measurement,setting,value
Cc1ccc(S(=O)(=O)NC(=O)NC(Cc2c[nH]c3ccccc23)C(=O)O)cc1 (stereo unspecified),TGI,[1],> 100 µM
same,TGI,[2],> 100 µM
same,TGI,[3],> 100 µM
same,TGI,[4],> 100 µM
same,TGI,[5],> 100 µM
same,TGI,[6],> 100 µM
same,TGI,[7],> 100 µM
same,TGI,[8],> 100 µM
same,TGI,[9],> 100 µM
same,TGI,[10],> 100 µM
same,TGI,[11],> 100 µM
same,TGI,[12],> 100 µM
same,TGI,[13],> 100 µM
same,TGI,[14],> 100 µM
same,TGI,[15],> 100 µM
same,TGI,[16],> 100 µM
same,TGI,[17],> 100 µM
same,TGI,[18],> 100 µM
same,TGI,[19],> 100 µM
same,TGI,[20],> 100 µM
same,TGI,[21],> 100 µM
same,TGI,[22],> 100 µM
same,TGI,[23],> 100 µM
same,TGI,[24],> 100 µM
same,TGI,[25],> 100 µM
same,TGI,[26],> 100 µM
same,TGI,[27],> 100 µM
same,TGI,[28],> 100 µM
same,TGI,[29],> 100 µM
same,TGI,[30],> 100 µM
same,TGI,[31],> 100 µM
same,TGI,[32],> 100 µM
same,TGI,[33],> 100 µM
same,TGI,[34],> 100 µM
same,TGI,[35],> 100 µM
same,TGI,[36],> 100 µM
same,TGI,[37],> 100 µM
same,TGI,[38],> 100 µM
same,TGI,[39],> 100 µM
same,TGI,[40],> 100 µM
same,TGI,[41],> 100 µM
same,TGI,[42],> 100 µM
same,TGI,[43],> 100 µM
same,TGI,[44],> 100 µM
same,TGI,[45],> 100 µM
same,TGI,[46],> 100 µM
same,TGI,[47],> 100 µM
same,TGI,[48],> 100 µM
same,TGI,[49],> 100 µM
O=S(=O)(c1cc(Cl)ccc1Cl)N1CCN(S(=O)(=O)c2cc(Cl)ccc2Cl)CC1,TGI,[1],> 100 µM
same,TGI,[50],> 100 µM
same,TGI,[2],> 100 µM
same,TGI,[51],> 100 µM
same,TGI,[3],> 100 µM
same,TGI,[52],> 100 µM
same,TGI,[6],29.6 µM
same,TGI,[53],> 100 µM
same,TGI,[7],> 100 µM
same,TGI,[8],> 100 µM
same,TGI,[10],> 100 µM
same,TGI,[11],> 100 µM
same,TGI,[12],83.4 µM
same,TGI,[13],> 100 µM
same,TGI,[14],> 100 µM
same,TGI,[15],> 100 µM
same,TGI,[16],> 100 µM
same,TGI,[18],> 100 µM
same,TGI,[19],> 100 µM
same,TGI,[54],> 100 µM
same,TGI,[20],> 100 µM
same,TGI,[55],> 100 µM
same,TGI,[21],> 100 µM
same,TGI,[22],> 100 µM
same,TGI,[56],> 100 µM
same,TGI,[23],18.7 µM
same,TGI,[24],> 100 µM
same,TGI,[25],> 100 µM
same,TGI,[26],> 100 µM
same,TGI,[57],> 100 µM
same,TGI,[28],30 µM
same,TGI,[29],> 100 µM
same,TGI,[30],> 100 µM
same,TGI,[32],> 100 µM
same,TGI,[33],> 100 µM
same,TGI,[34],> 100 µM
same,TGI,[35],> 100 µM
same,TGI,[36],> 100 µM
same,TGI,[37],> 100 µM
same,TGI,[38],> 100 µM
same,TGI,[40],> 100 µM
same,TGI,[41],> 100 µM
same,TGI,[42],> 100 µM
same,TGI,[44],> 100 µM
same,TGI,[45],> 100 µM
same,TGI,[46],> 100 µM
same,TGI,[47],> 100 µM
same,TGI,[48],> 100 µM
same,TGI,[58],2.48 µM
same,TGI,[49],> 100 µM
Cc1ccccc1N=C(N)NC#N,TGI,[1],> 100 µM
same,TGI,[2],> 100 µM
same,TGI,[51],> 100 µM
same,TGI,[3],> 100 µM
same,TGI,[52],> 100 µM
same,TGI,[4],> 100 µM
same,TGI,[5],> 100 µM
same,TGI,[6],> 100 µM
same,TGI,[59],> 100 µM
same,TGI,[53],> 100 µM
same,TGI,[7],> 100 µM
same,TGI,[8],> 100 µM
same,TGI,[9],> 100 µM
same,TGI,[10],> 100 µM
same,TGI,[11],> 100 µM
same,TGI,[12],> 100 µM
same,TGI,[13],> 100 µM
same,TGI,[14],> 100 µM
same,TGI,[15],> 100 µM
same,TGI,[17],> 100 µM
same,TGI,[18],> 100 µM
same,TGI,[19],> 100 µM
same,TGI,[54],> 100 µM
same,TGI,[20],> 100 µM
same,TGI,[55],> 100 µM
same,TGI,[21],> 100 µM
same,TGI,[22],> 100 µM
same,TGI,[23],> 100 µM
same,TGI,[24],> 100 µM
same,TGI,[26],> 100 µM
same,TGI,[27],> 100 µM
same,TGI,[28],> 100 µM
same,TGI,[29],> 100 µM
same,TGI,[30],> 100 µM
same,TGI,[31],> 100 µM
same,TGI,[32],> 100 µM
same,TGI,[33],> 100 µM
same,TGI,[35],> 100 µM
same,TGI,[36],> 100 µM
same,TGI,[37],> 100 µM
same,TGI,[38],> 100 µM
same,TGI,[39],> 100 µM
same,TGI,[40],> 100 µM
same,TGI,[41],> 100 µM
same,TGI,[42],> 100 µM
same,TGI,[43],> 100 µM
same,TGI,[44],> 100 µM
same,TGI,[46],> 100 µM
same,TGI,[47],> 100 µM
same,TGI,[48],> 100 µM
same,TGI,[58],> 100 µM
same,TGI,[49],> 100 µM
COc1cc2c(cc1OC)C1CN3C(=O)CCC3C(O)C1c1cc(OC)c(OC)cc1-2 (stereo unspecified),TGI,[1],> 100 µM
same,TGI,[50],> 100 µM
same,TGI,[2],> 100 µM
same,TGI,[51],> 100 µM
same,TGI,[3],> 100 µM
same,TGI,[52],> 100 µM
same,TGI,[4],> 100 µM
same,TGI,[5],> 100 µM
same,TGI,[6],> 100 µM
same,TGI,[59],> 100 µM
same,TGI,[53],> 100 µM
same,TGI,[7],> 100 µM
same,TGI,[8],> 100 µM
same,TGI,[9],> 100 µM
same,TGI,[10],> 100 µM
same,TGI,[11],> 100 µM
same,TGI,[12],> 100 µM
same,TGI,[13],> 100 µM
same,TGI,[14],> 100 µM
same,TGI,[15],> 100 µM
same,TGI,[16],> 100 µM
same,TGI,[17],> 100 µM
same,TGI,[18],> 100 µM
same,TGI,[19],> 100 µM
same,TGI,[54],> 100 µM
same,TGI,[20],> 100 µM
same,TGI,[55],> 100 µM
same,TGI,[21],> 100 µM
same,TGI,[22],> 100 µM
same,TGI,[23],> 100 µM
same,TGI,[24],> 100 µM
same,TGI,[25],> 100 µM
same,TGI,[26],> 100 µM
same,TGI,[27],> 100 µM
same,TGI,[28],> 100 µM
same,TGI,[29],> 100 µM
same,TGI,[31],> 100 µM
same,TGI,[32],> 100 µM
same,TGI,[33],> 100 µM
same,TGI,[34],> 100 µM
same,TGI,[36],> 100 µM
same,TGI,[37],> 100 µM
same,TGI,[38],> 100 µM
same,TGI,[39],> 100 µM
same,TGI,[40],> 100 µM
same,TGI,[41],> 100 µM
same,TGI,[42],> 100 µM
same,TGI,[43],> 100 µM
same,TGI,[44],> 100 µM
same,TGI,[45],> 100 µM
same,TGI,[46],> 100 µM
same,TGI,[47],> 100 µM
same,TGI,[48],> 100 µM
same,TGI,[58],> 100 µM
same,TGI,[49],> 100 µM
